Results reported in ChEMBL document CHEMBL5257090, “Modulation of in Vitro SARS-CoV-2 Infection by Stephania tetrandra and Its Alkaloid Constituents” (J Nat Prod, 2023).
Calls of active or inactive are those of the source. No cut-off for these calls is given here.

Legend:
HEK-293T [1] = assay: Cytotoxicity against HEK293T cells at 0.1 uM assessed as reduction in cell viability by CellTiter-Glo assay; format: toxicity, cell-based; details: human
HEK-293T [2] = assay: Cytotoxicity against HEK293T cells at 10 uM assessed as reduction in cell viability by CellTiter-Glo assay; format: toxicity, cell-based; details: human
SARS-CoV-2 [3] = assay: Antiviral activity against SARS-CoV-2 infected in HEK293T cells expressing ACE2/TMPRSS2 assessed as reduction in virus-induced cytopathic effect at 5 to 10 uM measured after 48 hrs by cellular ATP assay; format: functional, organism-based; details: Severe acute respiratory syndrome coronavirus 2, dose 5-10 µM
SARS-CoV-2 [4] = assay: Antiviral activity against SARS-CoV-2 infected in HEK293T cells expressing ACE2/TMPRSS2 assessed as reduction in virus-induced cytopathic effect measured after 48 hrs by cellular ATP assay; format: functional, organism-based; details: Severe acute respiratory syndrome coronavirus 2, HEK-293T
SARS-CoV-2 [5] = assay: Antiviral activity against SARS-CoV-2 infected in HEK293T cells expressing ACE2/TMPRSS2 assessed as reduction in virus-induced cytopathic effect at 2.5 uM measured after 48 hrs by cellular ATP assay; format: functional, Severe acute respiratory syndrome coronavirus 2; parameters: scale not given: the % may be the effect or the level left
HEK-293T [6] = assay: Cytotoxicity against HEK293T cells at 2.5 to 10 uM assessed as reduction in cell viability by CellTiter-Glo assay; format: toxicity, cell-based; details: human, dose 2.5-10 µM
SARS-CoV-2 [7] = assay: Antiviral activity against SARS-CoV-2 infected in HEK293T cells expressing ACE2/TMPRSS2 assessed as reduction in virus-induced cytopathic effect at 10 uM measured after 48 hrs by cellular ATP assay; format: functional, Severe acute respiratory syndrome coronavirus 2; parameters: scale not given: the % may be the effect or the level left
SARS-CoV-2 [8] = assay: Antiviral activity against SARS-CoV-2 delta infected in African green monkey Vero E6 cells expressing ACE-2/TMPRSS2 assessed as reduction in virus-induced cytopathic effect at 0.31 to 2.5 uM measured after 48 hrs by cellular ATP assay; format: functional, organism-based; details: Severe acute respiratory syndrome coronavirus 2, dose 0.31-2.5 µM
SARS-CoV-2 [9] = assay: Antiviral activity against wild-type SARS-CoV-2 USA-WA1/2020 NR-52281 infected in African green monkey Vero E6 cells expressing ACE-2/TMPRSS2 assessed as reduction in virus-induced cytopathic effect at 0.31 to 2.5 uM measured after 48 hrs by cellular ATP assay; format: functional, organism-based; details: Severe acute respiratory syndrome coronavirus 2, dose 0.31-2.5 µM
[10] = Induction of phospholipidosis in African green monkey Vero E6 cells expressing ACE-2/TMPRSS2 at 100 to 300 nM measured after 24 hrs by DAPI staining based fluorescence microscopic analysis; format: toxicity, cell-based; details: chlorocebus sabaeus, vero c1008, 24 h, 0.3 µM, dose 100-300 nM
[11] = Cytotoxicity against HEK293T cells assessed as reduction in cell viability by CellTiter-Glo assay; format: toxicity, cell-based, HEK-293T; details: human
HEK-293T [12] = assay: Downregulation of ORF1ab gene expression in HEK293T cells expressing ACE-2/TMPRSS2 infected with SARS-CoV-2 assessed as fold change preincubated with compound for 2 hrs followed by viral infection and measured after 24 hrs relative to MPV; format: functional, cell-based; details: Homo sapiens, time 26.0 hrs
[13] = Induction of phospholipidosis in HEK293T cells expressing ACE-2/TMPRSS2 at 1 uM measured after 24 hrs by DAPI staining based fluorescence microscopic analysis; format: toxicity, cell-based; details: human, hek-293t
[14] = Permeability of the compound in pH 7.4 measured after 5 hrs by LC-MS based PAMPA assay; format: ADME; details: pH 7.4, 5 h
[15] = Induction of phospholipidosis in HEK293T cells expressing ACE-2/TMPRSS2 at 100 to 300 nM measured after 24 hrs by DAPI staining based fluorescence microscopic analysis; format: toxicity, cell-based; details: human, hek-293t, 0.3 µM, dose 100-300 nM
HEK-293T [16] = assay: Up-regulation of leukocyte proliferation genes in HEK293T cells expressing ACE-2/TMPRSS2 infected with SARS-CoV-2 preincubated with compound for 2 hrs followed by viral infection and measured after 24 hrs by gene ontology analysis; format: functional, cell-based; details: Homo sapiens, time 26.0 hrs
HEK-293T [17] = assay: Downregulation of viral nucleocapsid N gene expression in HEK293T cells expressing ACE-2/TMPRSS2 infected with SARS-CoV-2 assessed as fold change preincubated with compound for 2 hrs followed by viral infection and measured after 24 hrs relative to MPV; format: functional, cell-based; details: Homo sapiens, time 26.0 hrs

Row | Structure (SMILES) | IC50 (SARS-CoV-2 [4]) | Activity (SARS-CoV-2 [9]) | Activity [10] | CC50 [11] | Activity (HEK-293T [12]) | Activity [13] | Activity [15] | further results
1 | CCC(CC)COC(=O)[C@H](C)N[P@](=O)(OC[C@H]1O[C@@](C#N)(c2ccc3c(N)ncnn23)[C@H](O)[C@@H]1O)Oc1ccccc1 |  |  |  |  |  |  |  | Activity (HEK-293T [1]): Non-Toxic; Activity (HEK-293T [2]): Toxic
2 | CN1[C@@H](CC(=O)c2ccccc2)CCC[C@H]1C[C@H](O)c1ccccc1 |  |  |  |  |  |  |  | Activity (SARS-CoV-2 [3]): inactive
3 | O=C(O)[C@H]1O[C@@H](Oc2cc3oc(-c4ccccc4)cc(=O)c3c(O)c2O)[C@H](O)[C@@H](O)[C@@H]1O |  |  |  |  |  |  |  | Activity (SARS-CoV-2 [3]): inactive
4 | O=c1cc(-c2ccccc2)oc2cc(O)c(O)c(O)c12 [BAICALEIN] | 5100 nM |  |  |  |  |  |  | 
5 | CN(C)C(=O)COC(=O)Cc1ccc(OC(=O)c2ccc(NC(=N)N)cc2)cc1 [CAMOSTAT] |  |  |  |  |  |  |  | Activity (SARS-CoV-2 [5]): 23%; Activity (HEK-293T [6]): Non-Toxic; Activity (SARS-CoV-2 [7]): 54.5%
6 | COc1ccc2cc1Oc1ccc(cc1)C[C@H]1c3c(cc4c(c3Oc3cc5c(cc3OC)CCN(C)[C@@H]5C2)OCO4)CCN1C [CEPHARANTHINE] | 143 nM | inactive | Non-Toxic | 2100 nM | Active | Toxic | Non-Toxic | Activity (SARS-CoV-2 [8]): Active; permeability [14]: Permeable
7 | COc1ccc2cc1Oc1ccc(cc1)C[C@H]1c3cc(c(OC)cc3CCN1C)Oc1c(OC)c(OC)cc3c1[C@H](C2)N(C)CC3 [FANCHININ] | 284 nM | inactive | Non-Toxic | > 1000 nM | Active | Toxic | Non-Toxic | Activity (HEK-293T [16]): Active; Activity (HEK-293T [17]): Active; permeability [14]: Permeable
8 | COc1ccc2cc1Oc1ccc(cc1)C[C@H]1c3cc(c(OC)cc3CCN1C)Oc1c(O)c(OC)cc3c1[C@H](C2)N(C)CC3 [FANGCHINOLINE] | 193 nM | inactive | Non-Toxic | > 1000 nM | Active | Toxic | Non-Toxic | Activity (HEK-293T [16]): Active
